Tests used:
[1] = test system: ALK11 (Alk11p, cytochrome P450 CYP52); test: In vitro enzymatic assay: conversion of radiolabeled fatty acids by microsomes of S. cerevisiae WAT11 expressing ALK11 (TLC); conditions: yeast microsomes, NADPH; for Degree of conversion (%): gene ALK11, substrate 100 μM, ND: not detectable
Description: (§1) In order to confirm their hypotheses according to which these enzymes catalyze fatty acids by oxygenation reaction, the inventors performed a screening using microsomes of S. cerevisiae WAT11 yeast transformed with 6 of the genes of the CYP52 family, cloned into Yarrowia lipolytica: ALK2, ALK3, ALK4, ALK5, ALK6 and ALK11.
(§2) The incubations were carried out on the model substrate constituted by lauric acid (C12.0), in the presence of NADPH.
(§3) The reaction mixtures were deposited on TLC plates, and then developed and analyzed.
(§4) In order to study the substrate specificity of these enzymes, the inventors incubated each microsomal preparation with free fatty acids of different size and at various levels of unsaturation (for example, myristic acid—C14:0, palmitic acid—C16:0, stearic acid—C18:0, oleic acid—C18:1 and linoleic acid—C18:2).
The expression of the proteins of the 6 members of the 6YP52 family cloned was carried out using a heterologous system specifically designed for the expression of cytochrome P450 enzymes, based on the pYeDP60 vector and the Saccharomyces cerevisiae WAT11 strain. The WAT11 strain was transformed with each of the pYeDP60 constructs using the lithium acetate LiAc method. The transformants were selected by plating out on YNB plates lacking uracil. The yeasts are left in culture and the expression of cytochrome P450 was induced as described in Pompon et al., 1996. For each transformant, the microsomes were prepared by manually breaking the cells using glass beads (0.45 mm in diameter) in 50 mM of a Tris-HCl buffer (pH 7.5) containing 1 mM EDTA and 600 mM of sorbitol. The homogenate was subjected to centrifugation (10 000 g-15 min) and the resulting supernatant was subjected to ultracentrifugation (100 000 g-1 h). The microsome pellet was resuspended in 50 mM Tris-HCl (pH 7.4), mM EDTA and 30% (v/v) of glycerol with a Potter-Elvehjem homogenizer. The volume of buffer used for resuspending the microsomes was determined by the approximate weight of the wet pellet of yeast obtained after growth (1 ml of buffer per 2 g of cell pellet). The total concentrations of protein in the microsomes were estimated using the Bradford test and homogenized at 15 mg/ml using the appropriate volume of resuspension buffer. […]
(§5) The activity of the cytochrome P450 enzymes was evaluated in vitro using various radiolabeled fatty acids. […]
The reaction mixtures were deposited directly on TLC plates covered with silica in order to separate the incubation products from the initial substrate. […] The plates were scanned using a radioactivity detector. The chromatograms resulting from the TLC make it possible to determine the degrees of conversion for each cytochrome P450/fatty acid combination, based on the radioactivity detected by the reader. […]

[2] = test system: ALK4 (Alk4p, cytochrome P450 CYP52); test: In vitro enzymatic assay: conversion of radiolabeled fatty acids by microsomes of S. cerevisiae WAT11 expressing ALK4 (TLC); conditions: gene ALK4, substrate 100 μM, yeast microsomes, NADPH, ND: not detectable
Description: as §1, §2
The reaction mixtures were deposited on TLC plates, and then developed and analyzed. […]
The expression of the proteins of the 6 members of the 6YP52 family cloned was carried out using a heterologous system specifically designed for the expression of cytochrome P450 enzymes, based on the pYeDP60 vector and the Saccharomyces cerevisiae WAT11 strain. […] The volume of buffer used for resuspending the microsomes was determined by the approximate weight of the wet pellet of yeast obtained after growth (1 ml of buffer per 2 g of cell pellet). […]
as §5
The reaction mixtures were deposited directly on TLC plates covered with silica in order to separate the incubation products from the initial substrate. […] The plates were scanned using a radioactivity detector. […]

[3] = test system: ALK5 (Alk5p, cytochrome P450 CYP52); test: In vitro enzymatic assay: conversion of radiolabeled fatty acids by microsomes of S. cerevisiae WAT11 expressing ALK5 (TLC); conditions: yeast microsomes, NADPH; for Degree of conversion (%): gene ALK5, substrate 100 μM, ND: not detectable
Description: as §1, §2, §3, §4
(§6) The expression of the proteins of the 6 members of the 6YP52 family cloned was carried out using a heterologous system specifically designed for the expression of cytochrome P450 enzymes, based on the pYeDP60 vector and the Saccharomyces cerevisiae WAT11 strain. The WAT11 strain was transformed with each of the pYeDP60 constructs using the lithium acetate LiAc method. The transformants were selected by plating out on YNB plates lacking uracil. The yeasts are left in culture and the expression of cytochrome P450 was induced as described in Pompon et al., 1996. For each transformant, the microsomes were prepared by manually breaking the cells using glass beads (0.45 mm in diameter) in 50 mM of a Tris-HCl buffer (pH 7.5) containing 1 mM EDTA and 600 mM of sorbitol. The homogenate was subjected to centrifugation (10 000 g-15 min) and the resulting supernatant was subjected to ultracentrifugation (100 000 g-1 h). The microsome pellet was resuspended in 50 mM Tris-HCl (pH 7.4), mM EDTA and 30% (v/v) of glycerol with a Potter-Elvehjem homogenizer. The volume of buffer used for resuspending the microsomes was determined by the approximate weight of the wet pellet of yeast obtained after growth (1 ml of buffer per 2 g of cell pellet). The total concentrations of protein in the microsomes were estimated using the Bradford test and homogenized at 15 mg/ml using the appropriate volume of resuspension buffer. The microsome preparation was stored at −20° C. All the experiments for the microsome preparations were carried out between 0 and 4° C.
(§7) The activity of the cytochrome P450 enzymes was evaluated in vitro using various radiolabeled fatty acids. The standard test (0.1 ml) contained […] sodium phosphate (pH 7.4), […] NADPH, a radiolabeled substrate (100 μM) and 0.15 mg of microsomal protein. The reactions were carried out in a waterbath at 27° C. with continuous shaking. The reaction is initiated by adding NADPH and stopped after 20 min by adding 20 μl of acetonitrile containing 0.2% of acetic acid.
The reaction mixtures were deposited directly on TLC plates covered with silica in order to separate the incubation products from the initial substrate. The plates were developed using an ether/petroleum ether/formic acid mixture (50:50:1, v/v/v). The plates were scanned using a radioactivity detector. The chromatograms resulting from the TLC make it possible to determine the degrees of conversion for each cytochrome P450/fatty acid combination, based on the radioactivity detected by the reader. The mobility of the products on the TLC plate is a good indication of the type of oxygenation reaction that was carried out on the substrate (i.e. hydroxylation, epoxidation, diacid formation).

[4] = test system: ALK3 (Alk3p, cytochrome P450 CYP52); test: In vitro enzymatic assay: conversion of radiolabeled fatty acids by microsomes of S. cerevisiae WAT11 expressing ALK3 (TLC, GC-MS); conditions: NADPH; for Products of conversion by Alk3p seen in TLC chromatograms: fresh microsomes, standardized total protein, duplicate; for Degree of conversion (%): gene ALK3, substrate 100 μM, ND: not detectable; for Reaction product of Alk3p identified by GC-MS (first product peak) / Reaction product of Alk3p identified by GC-MS (second peak, diacid): incubation with Alk3p microsomes, GC-MS of methylated/TMS derivatives
Description: as §1, §2, §3, §4
Preparations of fresh microsomes of yeast expressing Alk3p were carried out. The inventors standardized the total protein content and performed new incubations with lauric acid and palmitic acid and also the abovementioned three C18 fatty acids (stearic acid, oleic acid and linoleic acid). All the reactions were carried out in duplicate in the presence of NADPH for analysis by TLC and GC-MS.
as §6, §7
The reaction mixtures were deposited directly on TLC plates covered with silica in order to separate the incubation products from the initial substrate. The plates were developed using an ether/petroleum ether/formic acid mixture (50:50:1, v/v/v). The plates were scanned using a radioactivity detector.

[5] = test system: ALK2 (Alk2p, cytochrome P450 CYP52); test: In vitro enzymatic assay: conversion of radiolabeled fatty acids by microsomes of S. cerevisiae WAT11 expressing ALK2 (TLC); conditions: yeast microsomes, NADPH; for Degree of conversion (%): gene ALK2, substrate 100 μM, ND: not detectable
Description: as §1, §2, §3, §4, §6, §7
The reaction mixtures were deposited directly on TLC plates covered with silica in order to separate the incubation products from the initial substrate. The plates were developed using an ether/petroleum ether/formic acid mixture (50:50:1, v/v/v). The plates were scanned using a radioactivity detector. The chromatograms resulting from the TLC make it possible to determine the degrees of conversion for each cytochrome P450/fatty acid combination, based on the radioactivity detected by the reader. […]

How did the “Degree of conversion (%)” value [1] turn out when `CCCCC/C=C\C/C=C\CCCCCCCC(=O)O` [C18:2, linoleic acid] was run?
Its value is 4%.

What about the “Degree of conversion (%)” value [2] of the same compound?
The value was 3%.

What about the “Degree of conversion (%)” value [3] of the same compound?
Its value is 11%.

And the “Products of conversion by Alk3p seen in TLC chromatograms” value (shortened to “Products of conversion by Alk3p seen”) ([4]; TLC)?
The value was “two products”.

And the “Degree of conversion (%)” value ([4]; yeast microsomes, TLC)?
The value was 35%.

And the “Reaction product of Alk3p identified by GC-MS (first product peak)” value (from here on “Reaction product … (first product peak)”) [4]?
Its value is 18-hydroxylinoleic acid derivative.

And the “Reaction product of Alk3p identified by GC-MS (second peak, diacid)” value [4]?
Its value is 1,18-octadeca-9,12-dienedioic derivative.

`CCCCCCCC/C=C\CCCCCCCC(=O)O` [C18:1, oleic acid] was tested. Which “Degree of conversion (%)” value [1] did it give?
Its value is 2%.

And the “Degree of conversion (%)” value [3]?
Its value is 13%.

What about the “Products of conversion by Alk3p seen” value ([4]; TLC) of the same compound?
The value was “two products”.

And the “Degree of conversion (%)” value ([4]; yeast microsomes, TLC)?
Its value is 27%.

What about the “Reaction product … (first product peak)” value [4] of the same compound?
Its value is 18-hydroxyoleic acid derivative.

What about the “Reaction product of Alk3p identified by GC-MS (second peak, diacid)” value [4] of the same compound?
Its value is 1,18-octadeca-9-enedioic acid.

Which “Degree of conversion (%)” value [5] does the source give for `CCCCCCCCCCCCCC(=O)O` [C14:0, myristic acid] here?
The value was 1.1%.

What about the “Degree of conversion (%)” value [3] of the same compound?
Its value is 27%.

And the “Degree of conversion (%)” value ([4]; yeast microsomes, TLC)?
Its value is 68%.

`CCCCCCCCCCCC(=O)O` [C12:0, lauric acid] was tested. Which “Degree of conversion (%)” value [1] did it give?
Its value is “Traces”.

And the “Conversion of the fatty acid by Alk11p, in words” value [1]?
Its value is “capable of metabolizing”.

What about the “Degree of conversion (%)” value [5] of the same compound?
The value was 7.3%.

And the “Conversion of the fatty acid by Alk2p, in words” value [5]?
The value was “capable of metabolizing”.

What about the “Degree of conversion (%)” value [3] of the same compound?
Its value is 24%.

What about the “Conversion of the fatty acid by Alk5p, in words” value [3] of the same compound?
The value was “capable of metabolizing”.

What about the “Products of conversion by Alk3p seen” value ([4]; TLC) of the same compound?
The value was “two products”.

And the “Degree of conversion (%)” value ([4]; yeast microsomes, TLC)?
The value was 65%.

And the “Reaction product … (first product peak)” value [4]?
The value was 12-hydroxylauric acid derivative.

And the “Conversion of the fatty acid by Alk3p, in words” value ([4]; yeast microsomes, TLC)?
The value was “capable of metabolizing”.

How did the “Degree of conversion (%)” value [5] turn out when `CCCCCCCCCCCCCCCC(=O)O` [C16:0, palmitic acid] was run?
Its value is 0.5%.

And the “Degree of conversion (%)” value [3]?
The value was 12%.

`CCCCCCCCCCCCCCCCCC(=O)O` [C18:0, stearic acid] was tested. Which “Conversion of the fatty acid by Alk2p, in words” value [5] did it give?
Its value is “No significant conversion”.

What about the “Degree of conversion (%)” value [3] of the same compound?
Its value is 2%.

And the “Products of conversion by Alk3p seen” value ([4]; TLC)?
Its value is “only an w-oxidation product”.

What about the “Degree of conversion (%)” value ([4]; yeast microsomes, TLC) of the same compound?
Its value is 3%.

What about the “Reaction product … (first product peak)” value [4] of the same compound?
The value was 18-hydroxystearic acid derivative.

— patent US20180363011A1, “MICROORGANISMS AND USE THEREOF FOR THE PRODUCTION OF DIACIDS” (FONDS DE DEVELOPPEMENT DES FILIERES DES OLEAGINEUX ET DES …, priority 2015, published 2018)
